Experimental data: patent US20260138961A1, “MODULATORS OF MITOCHONDRIAL DNA REPLICATION” (Pretzel Therapeutics, Inc., priority 2022, published 2026)

Target: T1, POLγA:A467T (Homo sapiens, UniProt P54098, A467T)
T1 sequence (P54098 1-1239 A467T): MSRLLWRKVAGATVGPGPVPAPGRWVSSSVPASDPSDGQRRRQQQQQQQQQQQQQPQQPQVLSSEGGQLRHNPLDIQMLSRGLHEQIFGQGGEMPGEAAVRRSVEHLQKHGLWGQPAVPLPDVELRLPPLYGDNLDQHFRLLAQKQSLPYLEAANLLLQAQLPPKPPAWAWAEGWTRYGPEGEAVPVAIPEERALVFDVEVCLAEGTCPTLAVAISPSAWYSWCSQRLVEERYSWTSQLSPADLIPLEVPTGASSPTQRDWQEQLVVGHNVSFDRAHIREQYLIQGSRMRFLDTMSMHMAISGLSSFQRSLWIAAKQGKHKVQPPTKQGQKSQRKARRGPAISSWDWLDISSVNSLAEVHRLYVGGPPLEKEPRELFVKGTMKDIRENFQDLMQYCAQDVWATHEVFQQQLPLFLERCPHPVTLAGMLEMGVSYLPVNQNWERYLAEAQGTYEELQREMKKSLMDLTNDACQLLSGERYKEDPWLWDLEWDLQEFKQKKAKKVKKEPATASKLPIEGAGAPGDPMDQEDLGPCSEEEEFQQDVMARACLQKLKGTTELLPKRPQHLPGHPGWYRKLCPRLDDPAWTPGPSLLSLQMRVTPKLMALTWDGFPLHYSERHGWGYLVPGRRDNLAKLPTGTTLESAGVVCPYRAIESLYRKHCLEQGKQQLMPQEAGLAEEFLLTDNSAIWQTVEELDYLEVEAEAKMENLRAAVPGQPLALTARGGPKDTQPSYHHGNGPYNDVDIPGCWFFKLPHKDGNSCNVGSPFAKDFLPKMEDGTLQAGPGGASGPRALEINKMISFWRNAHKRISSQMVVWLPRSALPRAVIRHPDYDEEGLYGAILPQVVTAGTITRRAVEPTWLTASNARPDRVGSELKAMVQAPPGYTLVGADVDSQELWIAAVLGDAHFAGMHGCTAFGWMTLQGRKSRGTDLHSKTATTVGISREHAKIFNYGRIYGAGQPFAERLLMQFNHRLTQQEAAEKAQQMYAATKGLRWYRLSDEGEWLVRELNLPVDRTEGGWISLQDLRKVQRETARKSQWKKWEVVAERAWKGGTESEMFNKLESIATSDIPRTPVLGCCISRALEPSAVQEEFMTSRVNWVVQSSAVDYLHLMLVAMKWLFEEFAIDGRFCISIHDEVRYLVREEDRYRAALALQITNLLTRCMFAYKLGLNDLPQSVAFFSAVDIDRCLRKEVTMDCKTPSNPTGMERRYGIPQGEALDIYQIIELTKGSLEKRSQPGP
T1 sequence (Q9UHN1 1-485 partner): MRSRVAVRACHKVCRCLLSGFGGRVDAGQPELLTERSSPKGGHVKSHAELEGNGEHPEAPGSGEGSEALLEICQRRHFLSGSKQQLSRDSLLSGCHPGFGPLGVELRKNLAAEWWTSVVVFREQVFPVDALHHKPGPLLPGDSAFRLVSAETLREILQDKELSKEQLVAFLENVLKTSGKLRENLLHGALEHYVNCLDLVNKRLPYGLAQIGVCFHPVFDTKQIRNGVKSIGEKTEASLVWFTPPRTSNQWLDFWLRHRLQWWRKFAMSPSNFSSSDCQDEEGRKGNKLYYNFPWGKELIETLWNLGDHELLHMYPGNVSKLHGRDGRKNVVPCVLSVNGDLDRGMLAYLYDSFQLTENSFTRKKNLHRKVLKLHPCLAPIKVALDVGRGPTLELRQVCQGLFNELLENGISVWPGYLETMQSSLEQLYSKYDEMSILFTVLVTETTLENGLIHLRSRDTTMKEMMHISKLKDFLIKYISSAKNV
Experiment: DNA polymerization assay, POLγA:A467T mutant
Type: biochemical
Conditions: stimulation of polymerase activity, primed M13mp18 ssDNA, 37° C. 2 hours; read-out: A467T AC50

Molecule | AC50 [µM]
Cc1cc(S(=O)(=O)N[C@@H]2CCCN(C(=O)c3ccccc3)C2)c(C)cc1Cl [Example 150, (R)-N-(1-benzoylpiperidin-3-yl)-4-chloro-2,5-dimethylbenzenesulfonamide] | > 100
O=S(=O)(Nc1csc(-c2ccccc2)n1)c1cccc(C(F)(F)F)c1 [Example 151, N-(2-phenylthiazol-4-yl)-3-(trifluoromethyl)benzenesulfonamide] | > 100
O=S(=O)(Nc1csc(-c2ccccc2)n1)c1ccc2c(c1)CCO2 [Example 152, N-(2-phenylthiazol-4-yl)-2,3-dihydrobenzofuran-5-sulfonamide] | > 100
Cc1cc(S(=O)(=O)N[C@@H]2CCCN(C(=O)N3CCCC3)C2)c(C)cc1Cl [Example 153, (R)-4-chloro-2,5-dimethyl-N-(1-(pyrrolidine-1-carbonyl)piperidin-3-yl)benzenesulfonamide] | > 100
Cc1cc(S(=O)(=O)Nc2ccc3c(c2)CC(=O)N3)c(C)cc1Cl [Example 185, 4-chloro-2,5-dimethyl-N-(2-oxoindolin-5-yl)benzenesulfonamide] | 55
(R)-2,5-dimethyl-N-(3-(3-methylmorpholine-4-carbonyl)phenyl)benzenesulfonamide [Example 1] | 44
